Assay results from patent EP0603240B1, “SAFENING HERBICIDAL PYRAZOLYLSULFONYLUREAS” (priority 1991, dated 1993).

Tests used:
Format in all cases: in vivo
corn [1] = assay: Example 9, Procedure II: Herbicide No. 1 + pretilachlor (No. 13) with antidotes; conditions: Herbicide Nos. 1 and 13, Table 9
Method: (§1) Containers were filled and compacted with a fumigated silt loam top soil to a depth of about 1.3 cm from the top of the container. A first container was designated as an untreated control, a second container was designated as a herbicide control, and a third container was designated as a herbicide + antidote test container. Each of the containers was seeded with a crop species. A measured amount of herbicide dispersed or dissolved in acetone was applied to a measured quantity of soil. To this same quantity of soil treated with herbicide, there was added a measured amount of antidote dispersed or dissolved in acetone. The quantity of soil treated with the herbicide and antidote was thoroughly mixed to incorporate the herbicide and antidote in the soil uniformly. The seed bed in the third container of soil was covered with the soil treated with the herbicide and antidote and the container was leveled. For each test series, the seed beds of the first and second containers were likewise covered by soil layers. the cover layer of the first container was not treated with herbicide or antidote.
(§2) The containers were then placed on a bench in a greenhouse and sub-irrigated as required for the duration of the test. […] Plant response is measured in terms of percent injury. Antidote efficacy is indicated as the difference in plant injury by the herbicide(s) without the antidote and with the antidote.
(§3) This procedure is the same as Procedure I, but modified in the manner that after incorporation of the chemicals (herbicide and antidote) the containers with the covered seedbed were treated with an initial overhead irrigation equivalent to 0.6 cm rainfall, then subsequently sub-irrigated as required on greenhouse benches.
In this example the safening effect on a composition comprising Herbicide No. 1 and another leading rice herbicide, i.e., Herbicide No. 13, was investigated using the same antidotes and test procedure described in the preceding example. Herbicide No. 13 is pretilachlor, active ingredient used in the commercial rice herbicides RIFIT®, SOFIT® and SOFIT® SUPER.

[2] = tested on: barnyardgrass (Echinochloa crusgalli); assay: Example 21, Procedure II: Herbicide No. 1 + SUTAN PLUS (butylate + antidote) with antidotes
Method: as §1, §2, §3
(§4) In the series of greenhouse tests described below, for routine screening purposes the herbicide/antidote compositions were tested in crop/weed combinations involving corn as the crop and either or both of the weeds barnyardgrass (Echinochloa crusgalli), a monocotyledonous weed, and velvetleaf (Abutilon theophrasti), a dicotyledonous weed. In the tables below, these weeds are indicated by the symbols "BYG" and "VL", respectively.
(§5) In this example, tests were conducted as in the preceding Examples 18-20, except here the co-herbicidal component was SUTAN® PLUS, a commercial product comprising as the active herbicidal ingredient the compound butylate (Herbicide No. 10) and an antidote […] (Antidote No. 1). Again, the antidotal compounds herein were Nos. 1, 2, 7, 13 and 15. Procedure II was used.

[3] = tested on: velvetleaf (Abutilon theophrasti); assay: as above
Method: as §1, §2, §3, §4, §5

[4] = tested on: velvetleaf (Abutilon theophrasti); assay: Example 7, Procedure II: Herbicide No. 1 + metolachlor (No. 12) with antidotes
Method: as §1, §2, §3, §4
In this example, Procedure II described above was followed. The data from the tests in this example is shown in Table 6 and represents averages of duplicate replications.
The tests in this example followed the same procedure and antidotes used in Example 6. However, Herbicide No. 12 (metolachlor) was used as the co-herbicide with Herbicide No. 1.

[5] = tested on: velvetleaf (Abutilon theophrasti); assay: Example 24, Procedure II: Herbicide No. 1 + co-herbicides Nos. 4, 6, 7, 12 with Antidote Nos. 15 and 17-21
Method: as §1, §2, §3
(§6) In other greenhouse tests, using Procedure II described above, the safening efficacy of Antidote Nos. 15 and 17-21 was evaluated against Herbicide No. 1 in corn in the presence of Giant foxtail (Setaria fabergi) and Velvetleaf (Abutilon theophrasti) as representative annual monocotyledonous and dicotyledonous weeds, respectively.
(§7) Test results are shown in Tables 23A and 23B wherein the indicated plant inhibition represents the average of duplicate replications, with observations being made thirteen (13) days after application of the chemicals. Giant foxtail and Velvetleaf are represented by the symbols "GFT" and "VL", respectively. The data in Table 23A show the test results using the antidotes at 2.24 kg/ha, whereas in Table 23B, the antidotal rate was reduced to 0.56 kg/ha.
(§8) The tests described in Example 23 were duplicated, but in this example a variety of co-herbicides were included to ascertain the efficacy of the antidotes against combinations of Herbicide No. 1 and Herbicides Nos. 4, 6, 7 and 12 as co-herbicides. Test results are shown in Table 24, wherein the antidote application rate was 2.24 kg/ha.

[6] = tested on: Giant foxtail (Setaria fabergi); assay: as above
Method: as §1, §2, §3, §6, §7, §8

corn [7] = assay: as above
Method: as §1, §2, §3, §6, §7, §8

[8] = Herbicide No.1 0.56 kg/ha + SUTAN + 8.96 kg/ha, no added antidote
[9] = Herbicide No.1 0.56 kg/ha alone
[10] = Herbicide No.1 1.12 kg/ha + SUTAN + 8.96 kg/ha, no added antidote
[11] = Herbicide No.1 1.12 kg/ha alone
[12] = Herbicide No.1 0.56 kg/ha + SUTAN + 8.96 kg/ha, antidote 2.24 kg/ha
[13] = Herbicide No.1 0.56 kg/ha + SUTAN + 8.96 kg/ha, antidote 8.96 kg/ha
[14] = Herbicide No.1 1.12 kg/ha + SUTAN + 8.96 kg/ha, antidote 2.24 kg/ha
[15] = Herbicide No.1 1.12 kg/ha + SUTAN + 8.96 kg/ha, antidote 8.96 kg/ha
[16] = Herb. No. 1 0.07 Kg/ha + Co-Herb. No. 4 1.12 Kg/ha + antidote 2.24 Kg/ha
[17] = Herb. No. 1 0.07 Kg/ha + Co-Herb. No. 6 0.14 Kg/ha + antidote 2.24 Kg/ha
[18] = Herb. No. 1 0.07 Kg/ha + Co-Herb. No. 7 0.28 Kg/ha + antidote 2.24 Kg/ha
[19] = Herb. No. 1 0.07 Kg/ha + Co-Herb. No. 12 0.28 Kg/ha + antidote 2.24 Kg/ha
[20] = Herb. No. 1 0.14 Kg/ha + Co-Herb. No. 4 1.12 Kg/ha + antidote 2.24 Kg/ha
[21] = Herb. No. 1 0.14 Kg/ha + Co-Herb. No. 6 0.14 Kg/ha + antidote 2.24 Kg/ha
[22] = Herb. No. 1 0.14 Kg/ha + Co-Herb. No. 7 0.28 Kg/ha + antidote 2.24 Kg/ha
[23] = Herb. No. 1 0.14 Kg/ha + Co-Herb. No. 12 0.28 Kg/ha + antidote 2.24 Kg/ha
[24] = Herb. No. 1 0.28 Kg/ha + Co-Herb. No. 4 1.12 Kg/ha + antidote 2.24 Kg/ha
[25] = Herb. No. 1 0.28 Kg/ha + Co-Herb. No. 6 0.14 Kg/ha + antidote 2.24 Kg/ha
[26] = Herb. No. 1 0.28 Kg/ha + Co-Herb. No. 7 0.28 Kg/ha + antidote 2.24 Kg/ha
[27] = Herb. No. 1 0.28 Kg/ha + Co-Herb. No. 12 0.28 Kg/ha + antidote 2.24 Kg/ha
[28] = Herb. No. 1 0.56 Kg/ha + Co-Herb. No. 4 1.12 Kg/ha + antidote 2.24 Kg/ha
[29] = Herb. No. 1 0.56 Kg/ha + Co-Herb. No. 6 0.14 Kg/ha + antidote 2.24 Kg/ha
[30] = Herb. No. 1 0.56 Kg/ha + Co-Herb. No. 7 0.28 Kg/ha + antidote 2.24 Kg/ha
[31] = Herb. No. 1 0.56 Kg/ha + Co-Herb. No. 12 0.28 Kg/ha + antidote 2.24 Kg/ha

SMILES: CC1(C)OC(c2ccco2)CN1C(=O)C(Cl)Cl (stereo not drawn) [Antidote No. 15, Oxazolidine, 3-(dichloroacetyl)-5-(2-furanyl)-2,2-dimethyl]
- safening of corn, assessment in words (corn [1]): commercial-level safening of corn

SMILES: COC(=O)c1c(Cl)nn(C)c1S(=O)(=O)NC(=O)Nc1nc(OC)cc(OC)n1 [No.1]
- % Injury BYG [2, 8]: 20%
- % Injury BYG [2, 9]: 10%
- % Injury BYG [2, 10]: 50%
- % Injury BYG [2, 11]: 10%
- % Injury VL [3, 8]: 60%
- % Injury VL [3, 9]: 50%
- % Injury VL [3, 10]: 70%
- % Injury VL [3, 11]: 65%

SMILES: O=C1OC(=O)c2cccc3cccc1c23 [compound 2]
- % Injury BYG [2, 12]: 5%
- % Injury BYG [2, 13]: 10%
- % Injury BYG [2, 14]: 45%
- % Injury BYG [2, 15]: 5%
- % Injury VL [3, 12]: 55%
- % Injury VL [3, 13]: 65%
- % Injury VL [3, 14]: 70%
- % Injury VL [3, 15]: 70%
- % Injury VL ([4]; Herbicide No.1 0.14 + No.12 3.36 kg/ha + antidote 2.24 kg/ha): 75%
- % Injury VL ([4]; Herbicide No.1 0.14 + No.12 3.36 kg/ha + antidote 8.96 kg/ha): 75%
- % Injury VL ([4]; Herbicide No.1 0.56 + No.12 3.36 kg/ha + antidote 2.24 kg/ha): 80%
- % Injury VL ([4]; Herbicide No.1 0.56 + No.12 3.36 kg/ha + antidote 8.96 kg/ha): 85%

SMILES: CCSC(=O)COC(c1ccccc1)c1ccccc1 [compound 21]
- % Inhibition VL [5, 16]: 90%
- % Inhibition VL [5, 17]: 85%
- % Inhibition VL [5, 18]: 95%
- % Inhibition VL [5, 19]: 90%
- % Inhibition VL [5, 20]: 90%
- % Inhibition VL [5, 21]: 90%
- % Inhibition VL [5, 22]: 90%
- % Inhibition VL [5, 23]: 95%
- % Inhibition VL [5, 24]: 95%
- % Inhibition VL [5, 25]: 95%
- % Inhibition VL [5, 26]: 95%
- % Inhibition VL [5, 27]: 98%
- % Inhibition VL [5, 28]: 90%
- % Inhibition VL [5, 29]: 98%
- % Inhibition VL [5, 30]: 98%
- % Inhibition VL [5, 31]: 98%
- % Inhibition GFT [6, 16]: 65%
- % Inhibition GFT [6, 17]: 100%
- % Inhibition GFT [6, 18]: 100%
- % Inhibition GFT [6, 19]: 100%
- % Inhibition GFT [6, 20]: 60%
- % Inhibition GFT [6, 21]: 100%
- % Inhibition GFT [6, 22]: 100%
- % Inhibition GFT [6, 23]: 99%
- % Inhibition GFT [6, 24]: 65%
- % Inhibition GFT [6, 25]: 99%
- % Inhibition GFT [6, 26]: 98%
- % Inhibition GFT [6, 27]: 100%
- % Inhibition GFT [6, 28]: 70%
- % Inhibition GFT [6, 29]: 100%
- % Inhibition GFT [6, 30]: 100%
- % Inhibition GFT [6, 31]: 99%
- % Inhibition Corn (corn [7]; [16]): 5%
- % Inhibition Corn (corn [7]; [17]): 0%
- % Inhibition Corn (corn [7]; [18]): 0%
- % Inhibition Corn (corn [7]; [19]): 0%
- % Inhibition Corn (corn [7]; [20]): 5%
- % Inhibition Corn (corn [7]; [21]): 5%
- % Inhibition Corn (corn [7]; [22]): 0%
- % Inhibition Corn (corn [7]; [23]): 5%
- % Inhibition Corn (corn [7]; [24]): 0%
- % Inhibition Corn (corn [7]; [25]): 5%
- % Inhibition Corn (corn [7]; [26]): 5%
- % Inhibition Corn (corn [7]; [27]): 10%
- % Inhibition Corn (corn [7]; [28]): 5%
- % Inhibition Corn (corn [7]; [29]): 10%
- % Inhibition Corn (corn [7]; [30]): 15%
- % Inhibition Corn (corn [7]; [31]): 20%
